# Source: ChEMBL document CHEMBL4265943, “Design and synthesis of potent dual inhibitors of JAK2 and HDAC based on fusing the pharmacophores of XL019 and vorinostat” (Eur J Med Chem, 2018)
# Key:
# Histone deacetylase 1 = Histone deacetylase 1 (Homo sapiens, UniProt Q13547); assay: Inhibition of HDAC1 (unknown origin) using Arg-His-Lys-Lys(Ac) as substrate preincubated with enzyme followed by substrate addition for 2 hrs and measured for 1.5 hrs at 15 mins time interval by fluorescence assay
# [1] = target: T1, Protein deacetylase HDAC6 (Homo sapiens, UniProt Q9UBN7); assay: Inhibition of HDAC6 (unknown origin) using Arg-His-Lys-Lys(Ac) as substrate preincubated with enzyme followed by substrate addition for 2 hrs and measured for 1.5 hrs at 15 mins time interval by fluorescence assay
# T1 sequence (Q9UBN7 whole entry): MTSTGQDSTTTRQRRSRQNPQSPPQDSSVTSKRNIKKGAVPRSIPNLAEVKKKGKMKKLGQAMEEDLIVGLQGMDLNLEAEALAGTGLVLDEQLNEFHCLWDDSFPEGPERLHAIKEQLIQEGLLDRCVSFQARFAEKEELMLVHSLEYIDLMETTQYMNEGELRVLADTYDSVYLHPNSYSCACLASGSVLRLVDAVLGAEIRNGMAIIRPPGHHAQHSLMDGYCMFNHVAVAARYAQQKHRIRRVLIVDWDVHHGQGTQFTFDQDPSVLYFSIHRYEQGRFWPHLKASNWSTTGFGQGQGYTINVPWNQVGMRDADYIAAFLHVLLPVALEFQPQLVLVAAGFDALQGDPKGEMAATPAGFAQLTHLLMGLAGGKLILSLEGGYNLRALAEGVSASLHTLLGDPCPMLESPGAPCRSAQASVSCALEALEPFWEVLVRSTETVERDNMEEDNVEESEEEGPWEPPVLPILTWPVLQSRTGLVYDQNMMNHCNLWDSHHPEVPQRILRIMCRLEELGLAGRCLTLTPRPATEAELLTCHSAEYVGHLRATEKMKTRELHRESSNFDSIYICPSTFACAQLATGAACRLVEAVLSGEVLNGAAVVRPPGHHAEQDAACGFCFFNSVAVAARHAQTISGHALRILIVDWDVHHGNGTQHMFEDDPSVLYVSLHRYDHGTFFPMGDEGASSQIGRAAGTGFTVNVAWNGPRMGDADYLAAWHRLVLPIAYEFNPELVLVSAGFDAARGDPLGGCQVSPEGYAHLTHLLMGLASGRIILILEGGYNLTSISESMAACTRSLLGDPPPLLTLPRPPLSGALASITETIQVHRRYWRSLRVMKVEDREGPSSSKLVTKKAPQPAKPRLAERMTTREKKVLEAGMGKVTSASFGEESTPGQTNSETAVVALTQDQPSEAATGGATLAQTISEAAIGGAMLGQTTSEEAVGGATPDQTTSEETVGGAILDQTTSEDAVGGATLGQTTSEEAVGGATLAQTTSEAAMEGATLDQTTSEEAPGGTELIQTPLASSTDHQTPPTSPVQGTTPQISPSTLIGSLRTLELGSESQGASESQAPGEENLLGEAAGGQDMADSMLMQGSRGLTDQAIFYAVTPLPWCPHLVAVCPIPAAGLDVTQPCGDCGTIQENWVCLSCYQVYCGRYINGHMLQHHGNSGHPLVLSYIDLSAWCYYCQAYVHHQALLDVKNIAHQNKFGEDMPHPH
# [2] = target: Non-receptor tyrosine-protein kinase TYK2 (Homo sapiens, UniProt P29597); assay: Inhibition of human TYK2 using KKSRGDYMTMQIG as substrate preincubated for 20 mins followed by [gamma33P]ATP addition measured after 120 mins by ion exchange filter paper method
# Chain of Non-receptor tyrosine-protein kinase TYK2 (P29597 whole entry): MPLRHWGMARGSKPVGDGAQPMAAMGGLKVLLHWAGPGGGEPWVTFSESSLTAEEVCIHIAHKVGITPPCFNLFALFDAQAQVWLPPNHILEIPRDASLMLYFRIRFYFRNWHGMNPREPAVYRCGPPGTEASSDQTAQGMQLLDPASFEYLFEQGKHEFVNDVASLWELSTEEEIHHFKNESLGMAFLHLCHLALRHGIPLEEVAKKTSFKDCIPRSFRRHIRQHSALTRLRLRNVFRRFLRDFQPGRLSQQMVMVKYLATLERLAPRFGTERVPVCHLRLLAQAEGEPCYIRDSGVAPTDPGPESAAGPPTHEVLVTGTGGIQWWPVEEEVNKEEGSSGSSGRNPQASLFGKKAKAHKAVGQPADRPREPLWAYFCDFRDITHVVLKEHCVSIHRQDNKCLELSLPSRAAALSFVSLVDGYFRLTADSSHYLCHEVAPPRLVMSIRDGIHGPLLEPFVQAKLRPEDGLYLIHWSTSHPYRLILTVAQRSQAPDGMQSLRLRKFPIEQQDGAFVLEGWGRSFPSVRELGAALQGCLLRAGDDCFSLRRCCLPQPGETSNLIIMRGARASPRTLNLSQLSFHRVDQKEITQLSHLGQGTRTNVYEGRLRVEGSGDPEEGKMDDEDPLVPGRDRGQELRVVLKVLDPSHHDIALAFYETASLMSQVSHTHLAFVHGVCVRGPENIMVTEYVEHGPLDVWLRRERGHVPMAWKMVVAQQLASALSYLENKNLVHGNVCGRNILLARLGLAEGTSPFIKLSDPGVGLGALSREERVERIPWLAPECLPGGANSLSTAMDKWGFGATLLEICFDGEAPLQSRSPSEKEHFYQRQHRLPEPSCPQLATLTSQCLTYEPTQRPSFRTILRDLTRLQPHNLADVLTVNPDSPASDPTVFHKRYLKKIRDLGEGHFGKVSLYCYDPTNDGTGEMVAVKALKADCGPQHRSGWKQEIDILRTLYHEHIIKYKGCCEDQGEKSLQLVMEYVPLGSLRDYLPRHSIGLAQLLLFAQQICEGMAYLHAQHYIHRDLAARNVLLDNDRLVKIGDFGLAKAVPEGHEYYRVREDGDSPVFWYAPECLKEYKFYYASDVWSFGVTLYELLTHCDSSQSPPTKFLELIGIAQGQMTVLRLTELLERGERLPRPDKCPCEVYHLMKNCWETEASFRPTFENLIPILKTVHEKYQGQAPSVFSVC
# Homo sapiens [3] = species: Homo sapiens; assay: Selectivity ratio of IC50 for human JAK1 to IC50 for human JAK2
# Homo sapiens [4] = species: Homo sapiens; assay: Selectivity ratio of IC50 for human TYK2 to IC50 for human JAK2
# MDA-MB-231 [5] = assay: Antiproliferative activity against human MDA-MB-231 cells after 72 hrs by MTT assay; assay type: functional, cell-based; conditions: MDA-MB-231, 72 h
# [6] = Antiproliferative activity against human AC10 cells after 72 hrs by MTT assay; assay type: cell-based
# [7] = Antiproliferative activity against mouse TAMH cells after 72 hrs by MTT assay; assay type: cell-based
# [8] = Selectivity index, ratio of CC50 for human AC10 cells to IC50 for human HCT116 cells; assay type: toxicity; conditions: AC10 cells (CC50) and HCT116 cells (IC50)
# [9] = Selectivity index, ratio of CC50 for human AC10 cells to IC50 for human MDA-MB-231 cells; assay type: toxicity; conditions: AC10 cells (CC50) and MDA-MB-231 cells (IC50)
# [10] = Selectivity index, ratio of CC50 for mouse TAMH cells to IC50 for human MDA-MB-231 cells; assay type: toxicity; conditions: TAMH cells (CC50) and MDA-MB-231 cells (IC50)
# [11] = Selectivity index, ratio of CC50 for human AC10 cells to IC50 for human MCF7 cells; assay type: toxicity; conditions: AC10 cells (CC50) and MCF7 cells (IC50)
# PC-3 = assay: Induction of apoptosis in human PC3 cells assessed as early apoptotic cells at 0.71 uM after 72 hrs by Annexin V-FITC/propidium iodide staining based flow cytometry (reference value: […]%); assay type: functional
# HCT-116 [12] = assay: Induction of apoptosis in human HCT116 cells assessed as late apoptotic cells at 1.14 uM after 72 hrs by Annexin V-FITC/propidium iodide staining based flow cytometry (reference value: 1.45%); assay type: functional
# HCT-116 [13] = assay: Induction of apoptosis in human HCT116 cells assessed as necrotic cells at 1.14 uM after 72 hrs by Annexin V-FITC/propidium iodide staining based flow cytometry (reference value: 1.54%); assay type: functional
# MCF7 [14] = assay: Induction of apoptosis in human MCF7 cells assessed as live cells at 0.86 uM after 72 hrs by Annexin V-FITC/propidium iodide staining based flow cytometry (reference value: 95.05%); assay type: functional
# MCF7 [15] = assay: Induction of apoptosis in human MCF7 cells assessed as late apoptotic cells at 0.86 uM after 72 hrs by Annexin V-FITC/propidium iodide staining based flow cytometry (reference value: 1.59%); assay type: functional
# MCF7 [16] = assay: Induction of apoptosis in human MCF7 cells assessed as necrotic cells at 0.86 uM after 72 hrs by Annexin V-FITC/propidium iodide staining based flow cytometry (reference value: 2.17%); assay type: functional
# MDA-MB-231 [17] = assay: Induction of apoptosis in human MDA-MB-231 cells assessed as live cells at 0.9 uM after 72 hrs by Annexin V-FITC/propidium iodide staining based flow cytometry (reference value: 90.98%); assay type: functional
# MDA-MB-231 [18] = assay: Induction of apoptosis in human MDA-MB-231 cells assessed as early apoptotic cells at 0.9 uM after 72 hrs by Annexin V-FITC/propidium iodide staining based flow cytometry (reference value: 1.45%); assay type: functional
# MDA-MB-231 [19] = assay: Induction of apoptosis in human MDA-MB-231 cells assessed as late apoptotic cells at 0.9 uM after 72 hrs by Annexin V-FITC/propidium iodide staining based flow cytometry (reference value: 2.12%); assay type: functional
# MDA-MB-231 [20] = assay: Induction of apoptosis in human MDA-MB-231 cells assessed as necrotic cells at 0.9 uM after 72 hrs by Annexin V-FITC/propidium iodide staining based flow cytometry (reference value: 5.45%); assay type: functional
# Chain of Histone deacetylase 1 (Q13547 whole entry): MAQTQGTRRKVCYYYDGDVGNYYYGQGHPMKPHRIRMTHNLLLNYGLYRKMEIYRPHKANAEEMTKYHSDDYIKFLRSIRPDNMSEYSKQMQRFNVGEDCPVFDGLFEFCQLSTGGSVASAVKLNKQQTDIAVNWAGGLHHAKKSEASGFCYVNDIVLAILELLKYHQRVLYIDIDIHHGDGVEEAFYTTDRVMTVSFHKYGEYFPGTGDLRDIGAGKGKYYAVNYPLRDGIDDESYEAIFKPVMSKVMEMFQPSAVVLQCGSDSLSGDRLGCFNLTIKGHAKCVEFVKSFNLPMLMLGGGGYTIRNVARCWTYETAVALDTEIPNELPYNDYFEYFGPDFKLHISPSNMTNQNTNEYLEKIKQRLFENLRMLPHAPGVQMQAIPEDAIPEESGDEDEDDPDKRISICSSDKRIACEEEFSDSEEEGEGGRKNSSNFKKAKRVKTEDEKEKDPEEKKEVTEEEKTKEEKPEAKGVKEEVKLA
smiles,measurement,setting,value
O=C(CCCCCCC(=O)Nc1ccc(-c2ccnc(Nc3ccc(N4CCOCC4)cc3)n2)cc1)NO,IC50,Histone deacetylase 1,56 nM
same,IC50,[1],1.2 nM
same,IC50,[2],79.4 nM
same,Ratio IC50,Homo sapiens [3],16.8
same,Ratio IC50,Homo sapiens [4],25.6
same,IC50,MDA-MB-231 [5],990 nM
same,CC50 at 72 h,[6],3.98 µM
same,CC50 at 72 h,[7],6.39 µM
same,selectivity ratio,[8],3.79
same,selectivity ratio,[9],4.02
same,selectivity ratio,[10],6.45
same,selectivity ratio,[11],5.69
same,Activity,PC-3,45.69%
same,Activity,HCT-116 [12],12.12%
same,Activity,HCT-116 [13],4.29%
same,Activity,MCF7 [14],37.54%
same,Activity,MCF7 [15],24.84%
same,Activity,MCF7 [16],7.97%
same,Activity,MDA-MB-231 [17],10.29%
same,Activity,MDA-MB-231 [18],43.86%
same,Activity,MDA-MB-231 [19],39.98%
same,Activity,MDA-MB-231 [20],5.87%
